Source: patent US10463593B2, “Lupin peptide extracts and skin firmness” (LABORATOIRES EXPANSCIENCE, priority 2014, dated 2019)

Columns and labels:
[1] = system: proteins of the extracellular matrix (chiefly collagens); experiment: Non-enzymatic glycation: incorporation of [3H]-glucose in extracellular matrix proteins deposited by dermal fibroblasts; format: biochemical, human; settings: 1 mg/ml
Protocol: The non-enzymatic insertion of AGEs in synthesised collagen fibres deposited by human dermal fibroblasts cultured in vitro was examined. A radioactive detection method was used that was based on the incorporation of tritiated glucose in the proteins of the extracellular matrix.
Normal human dermal fibroblasts were cultured in the presence of vitamin C to stimulate the synthesis of collagen. The cells then underwent different operations (freezing/thawing/heating) to inactivate all enzymatic activity.
The matrix layers thus obtained were treated in the presence of the above-described lupin peptide extract at 0.2 and 2%, aminoguanidine HCl at 1 mg/ml (control), 0.2% glucose and [^3H]-glucose radioactive marker for 15 days at 37° C., in the absence of oxygen (rapid re-oxygenation was performed after 7 treatment days).
After incubation, the proteins of the extracellular matrix (chiefly collagens) were extracted using a chaotropic buffer, precipitated with trichloroacetic acid and collected on filters. The radioactivity incorporated in the ECM fibres was measured by liquid scintillation.
The results were analysed statistically using one-factor analysis of variance followed by a Dunnett test, and are given in the Table below: […]

[2] = system: “aged” dermal equivalents seeded with senescent fibroblasts; experiment: Contraction of “aged” dermal equivalents (surface area); format: cell-based; settings: 10 ng/ml; for % “aged” control: area relative to “aged” control; for Area in mm^2 (mean ± SEM): “aged” DEs
Protocol: A model of dermal equivalents containing fibroblasts allows evaluation of the quality of interactions between fibroblasts and collagen fibres. The free contraction/retraction of these dermal equivalents results from the dynamic activity of the cells which apply tensile forces on the collagen network.
The effect of lupin peptide extract on the contraction of dermal equivalents was evaluated. To induce a condition of fibroblast loss of contractile forces, the dermal equivalents were seeded with senescent so-called “aged” fibroblasts (obtained by successive passaging in accordance with the Hayflick model).
“Aged” or normal dermal equivalents were prepared by mixing the fibroblasts (at passage 8 for normal dermal equivalents or at passage 17 for “aged” dermal equivalents) with a collagen solution.
After full gelling, the dermal equivalents were treated with TGFβ at 10 ng/ml (control) or 0.1% lupin peptide extract and incubated for 4 days.
The dermal equivalents were photographed at D1, D3 and D4 to measure their surface area for determination of contraction.

Cl.N=C(N)NN [Aminoguanidine, aminoguanidine HCl]
Incorporation [^3H]-glucose (cpm) ([1]; 15 days at 37° C., control 5527 ± 464): 1219 ± 92 cpm | Inhibition of glycation ([1]; versus control, p < 0.001): −78% p < 0.001

TGFβ
Contraction of “aged” DEs (in words) ([2]; significant after a treatment time of 4 days): stimulates the contraction of “aged” DEs | % “aged” control ([2]; D1): 94% | Area in mm^2 (mean ± SEM) ([2]; D1): 264.6 ± 5.5 mm^2 | % “aged” control ([2]; D3): 95% | Area in mm^2 (mean ± SEM) ([2]; D3): 285.9 ± 6.7 mm^2 | % “aged” control ([2]; D4, p < 0.05): 85 (p < 0.05) % | Area in mm^2 (mean ± SEM) ([2]; D4): 201.3 ± 8.4 mm^2
